# Source: ChEMBL document CHEMBL3600353, “In Vitro Activity of Epigallocatechin Gallate and Quercetin Alone and in Combination versus Clinical Isolates of Methicillin-Resistant Staphylococcus aureus” (2015)
# Active and inactive are the calls of the source. The rule behind the calls is not given here.
# Assays:
# Staphylococcus aureus [1] = test: Antibacterial activity against methicillin-resistant Staphylococcus aureus isolate 2 after 24 hrs by checkerboard assay; format: functional; conditions: isolate 2, 24 h
# Staphylococcus aureus [2] = test: Antibacterial activity against methicillin-resistant Staphylococcus aureus isolate 6 assessed as reduction of epigallocatechin gallate MIC after 24 hrs by checkerboard assay in presence of quercetin; format: functional; conditions: isolate 6, 24 h
# Staphylococcus aureus [3] = test: Antibacterial activity against methicillin-resistant Staphylococcus aureus NCTC 12493 after 24 hrs by checkerboard assay; format: functional; conditions: NCTC 12493, 24 h
# Staphylococcus aureus [4] = test: Antibacterial activity against Staphylococcus aureus ATCC 25923 after 24 hrs by checkerboard assay in presence of quercetin; format: functional
# Staphylococcus aureus [5] = test: Antibacterial activity against methicillin-resistant Staphylococcus aureus isolate 9 after 24 hrs by checkerboard assay; format: functional; conditions: isolate 9, 24 h
# Staphylococcus aureus [6] = test: Antibacterial activity against methicillin-resistant Staphylococcus aureus isolate 5 by disk diffusion assay; format: functional
# Staphylococcus aureus [7] = test: Antibacterial activity against methicillin-resistant Staphylococcus aureus isolate 3 after 24 hrs by checkerboard assay; format: functional; conditions: isolate 3, 24 h
# Staphylococcus aureus [8] = test: Antibacterial activity against methicillin-sensitive Staphylococcus aureus ATCC 25923 after 24 hrs by time kill assay; format: functional, organism-based
# Staphylococcus aureus [9] = test: Antibacterial activity against methicillin-sensitive Staphylococcus aureus ATCC 25923 at 0.56 mM after 24 hrs by time kill assay in presence of 0.85 mM of quercetin; format: functional, organism-based
# Staphylococcus aureus [10] = test: Antibacterial activity against methicillin-sensitive Staphylococcus aureus ATCC 25923 at 0.28 mM after 24 hrs by time kill assay in presence of 0.42 mM of quercetin; format: functional, organism-based
# Staphylococcus aureus [11] = test: Antibacterial activity against methicillin-resistant Staphylococcus aureus isolate 2 by disk diffusion assay; format: functional
# Staphylococcus aureus [12] = test: Antibacterial activity against methicillin-resistant Staphylococcus aureus isolate 7 assessed as reduction of epigallocatechin gallate MIC after 24 hrs by checkerboard assay in presence of quercetin; format: functional; conditions: isolate 7, 24 h
# Staphylococcus aureus [13] = test: Antibacterial activity against methicillin-resistant Staphylococcus aureus isolate 9 after 24 hrs by checkerboard assay in presence of quercetin; format: functional
# Staphylococcus aureus [14] = test: Antibacterial activity against methicillin-resistant Staphylococcus aureus NCTC 12493 after 24 hrs by checkerboard assay in presence of quercetin; format: functional
# Staphylococcus aureus [15] = test: Antibacterial activity against methicillin-resistant Staphylococcus aureus isolate 8 after 24 hrs by checkerboard assay in presence of quercetin; format: functional
# Staphylococcus aureus [16] = test: Antibacterial activity against methicillin-resistant Staphylococcus aureus isolate 8 after 24 hrs by checkerboard assay; format: functional; conditions: isolate 8, 24 h
# Staphylococcus aureus [17] = test: Antibacterial activity against methicillin-resistant Staphylococcus aureus NCTC 12493 assessed as log reduction of colony forming unit at 0.28 mM after 24 hrs; format: functional, organism-based
# Staphylococcus aureus [18] = test: Antibacterial activity against methicillin-resistant Staphylococcus aureus isolate 6 after 24 hrs by checkerboard assay; format: functional; conditions: isolate 6, 24 h
# Staphylococcus aureus [19] = test: Antibacterial activity against methicillin-resistant Staphylococcus aureus isolate 9 by disk diffusion assay; format: functional
# Staphylococcus aureus [20] = test: Antibacterial activity against vancomycin-intermediate resistant Staphylococcus aureus Mu50 assessed as log reduction of colony forming unit at 0.28 mM after 24 hrs; format: functional, organism-based
# Staphylococcus aureus [21] = test: Antibacterial activity against vancomycin-intermediate resistant Staphylococcus aureus Mu50 after 24 hrs by checkerboard assay; format: functional; conditions: Mu50, 24 h
# Staphylococcus aureus [22] = test: Antibacterial activity against methicillin-resistant Staphylococcus aureus NCTC 12493 assessed as reduction of epigallocatechin gallate MIC after 24 hrs by checkerboard assay in presence of quercetin; format: functional; conditions: NCTC 12493, 24 h
# Staphylococcus aureus [23] = test: Antibacterial activity against methicillin-resistant Staphylococcus aureus isolate 4 assessed as reduction of epigallocatechin gallate MIC after 24 hrs by checkerboard assay in presence of quercetin; format: functional; conditions: isolate 4, 24 h
# Staphylococcus aureus [24] = test: Antibacterial activity against methicillin-resistant Staphylococcus aureus isolate 6 after 24 hrs by checkerboard assay in presence of quercetin; format: functional
# Staphylococcus aureus [25] = test: Antibacterial activity against vancomycin-intermediate resistant Staphylococcus aureus Mu50 after 24 hrs by checkerboard assay in presence of quercetin; format: functional
# Staphylococcus aureus [26] = test: Antibacterial activity against methicillin-resistant Staphylococcus aureus isolate 9 assessed as reduction of epigallocatechin gallate MIC after 24 hrs by checkerboard assay in presence of quercetin; format: functional; conditions: isolate 9, 24 h
# Staphylococcus aureus [27] = test: Antibacterial activity against methicillin-resistant Staphylococcus aureus isolate 7 by disk diffusion assay; format: functional
# Staphylococcus aureus [28] = test: Antibacterial activity against vancomycin-intermediate resistant Staphylococcus aureus Mu50 at 0.56 mM after 24 hrs by time kill assay; format: functional, organism-based
# Staphylococcus aureus [29] = test: Antibacterial activity against methicillin-resistant Staphylococcus aureus isolate 7 after 24 hrs by checkerboard assay in presence of quercetin; format: functional
# Staphylococcus aureus [30] = test: Antibacterial activity against Staphylococcus aureus ATCC 25923 assessed as reduction of epigallocatechin gallate MIC after 24 hrs by checkerboard assay in presence of quercetin; format: functional; conditions: ATCC 25923, 24 h
# Staphylococcus aureus [31] = test: Antibacterial activity against methicillin-resistant Staphylococcus aureus isolate 4 after 24 hrs by checkerboard assay in presence of quercetin; format: functional
# Staphylococcus aureus [32] = test: Antibacterial activity against methicillin-resistant Staphylococcus aureus NCTC 12493 at 0.28 mM after 24 hrs by time kill assay; format: functional, organism-based
# Staphylococcus aureus [33] = test: Antibacterial activity against methicillin-sensitive Staphylococcus aureus ATCC 25923 at 0.28 mM after 24 hrs by time kill assay in presence of 0.2 mM of quercetin; format: functional, organism-based
# Staphylococcus aureus [34] = test: Antibacterial activity against methicillin-resistant Staphylococcus aureus isolate 5 after 24 hrs by checkerboard assay in presence of quercetin; format: functional
# Staphylococcus aureus [35] = test: Antibacterial activity against methicillin-resistant Staphylococcus aureus isolate 1 by disk diffusion assay; format: functional
# Staphylococcus aureus [36] = test: Antibacterial activity against methicillin-resistant Staphylococcus aureus isolate 8 by disk diffusion assay; format: functional
# Staphylococcus aureus [37] = test: Antibacterial activity against methicillin-resistant Staphylococcus aureus NCTC 12493 assessed as log reduction of colony forming unit at 0.28 mM after 4 hrs; format: functional, organism-based
# Staphylococcus aureus [38] = test: Antibacterial activity against methicillin-resistant Staphylococcus aureus isolate 3 assessed as reduction of epigallocatechin gallate MIC after 24 hrs by checkerboard assay in presence of quercetin; format: functional; conditions: isolate 3, 24 h
# Staphylococcus aureus [39] = test: Antibacterial activity against methicillin-resistant Staphylococcus aureus isolate 5 assessed as reduction of epigallocatechin gallate MIC after 24 hrs by checkerboard assay in presence of quercetin; format: functional; conditions: isolate 5, 24 h
# Staphylococcus aureus [40] = test: Antibacterial activity against methicillin-resistant Staphylococcus aureus isolate 4 by disk diffusion assay; format: functional
# Staphylococcus aureus [41] = test: Antibacterial activity against methicillin-resistant Staphylococcus aureus isolate 7 after 24 hrs by checkerboard assay; format: functional; conditions: isolate 7, 24 h
# Staphylococcus aureus [42] = test: Antibacterial activity against methicillin-resistant Staphylococcus aureus NCTC 12493 after 24 hrs by time kill assay; format: functional, organism-based
# Staphylococcus aureus [43] = test: Antibacterial activity against methicillin-resistant Staphylococcus aureus isolate 3 by disk diffusion assay; format: functional
# Staphylococcus aureus [44] = test: Antibacterial activity against methicillin-sensitive Staphylococcus aureus ATCC 25923 at 0.56 mM after 4 hrs by time kill assay; format: functional, organism-based
# Staphylococcus aureus [45] = test: Antibacterial activity against methicillin-resistant Staphylococcus aureus isolate 3 after 24 hrs by checkerboard assay in presence of quercetin; format: functional
# Staphylococcus aureus [46] = test: Antibacterial activity against Staphylococcus aureus ATCC 25923 after 24 hrs by checkerboard assay; format: functional; conditions: ATCC 25923, 24 h
# Staphylococcus aureus [47] = test: Antibacterial activity against methicillin-resistant Staphylococcus aureus isolate 6 by disk diffusion assay; format: functional
# Staphylococcus aureus [48] = test: Antibacterial activity against methicillin-resistant Staphylococcus aureus isolate 1 after 24 hrs by checkerboard assay in presence of quercetin; format: functional
# Staphylococcus aureus [49] = test: Antibacterial activity against methicillin-resistant Staphylococcus aureus isolate 2 assessed as reduction of epigallocatechin gallate MIC after 24 hrs by checkerboard assay in presence of quercetin; format: functional; conditions: isolate 2, 24 h
# Staphylococcus aureus [50] = test: Antibacterial activity against vancomycin-intermediate resistant Staphylococcus aureus Mu50 assessed as reduction of epigallocatechin gallate MIC after 24 hrs by checkerboard assay in presence of quercetin; format: functional; conditions: Mu50, 24 h
# Staphylococcus aureus [51] = test: Antibacterial activity against methicillin-resistant Staphylococcus aureus NCTC 12493 at 0.28 mM after 4 hrs by time kill assay; format: functional, organism-based
# Staphylococcus aureus [52] = test: Antibacterial activity against methicillin-resistant Staphylococcus aureus NCTC 12493 assessed as log reduction of colony forming unit at 0.28 mM after 2 hrs; format: functional, organism-based
# Staphylococcus aureus [53] = test: Antibacterial activity against methicillin-resistant Staphylococcus aureus isolate 8 assessed as reduction of epigallocatechin gallate MIC after 24 hrs by checkerboard assay in presence of quercetin; format: functional; conditions: isolate 8, 24 h
# Staphylococcus aureus [54] = test: Antibacterial activity against methicillin-sensitive Staphylococcus aureus ATCC 25923 at 0.56 mM after 24 hrs by time kill assay; format: functional, organism-based
# Staphylococcus aureus [55] = test: Antibacterial activity against methicillin-resistant Staphylococcus aureus isolate 1 assessed as reduction of epigallocatechin gallate MIC after 24 hrs by checkerboard assay in presence of quercetin; format: functional; conditions: isolate 1, 24 h
# Staphylococcus aureus [56] = test: Antibacterial activity against vancomycin-intermediate resistant Staphylococcus aureus Mu50 at 0.56 mM after 4 hrs by time kill assay; format: functional, organism-based
# Staphylococcus aureus [57] = test: Antibacterial activity against methicillin-resistant Staphylococcus aureus isolate 2 after 24 hrs by checkerboard assay in presence of quercetin; format: functional
# Staphylococcus aureus [58] = test: Antibacterial activity against methicillin-resistant Staphylococcus aureus isolate 1 after 24 hrs by checkerboard assay; format: functional; conditions: isolate 1, 24 h
# Staphylococcus aureus [59] = test: Antibacterial activity against methicillin-resistant Staphylococcus aureus isolate 5 after 24 hrs by checkerboard assay; format: functional; conditions: isolate 5, 24 h
# Staphylococcus aureus [60] = test: Antibacterial activity against vancomycin-intermediate resistant Staphylococcus aureus Mu50 after 24 hrs by time kill assay; format: functional, organism-based
# Staphylococcus aureus [61] = test: Antibacterial activity against methicillin-sensitive Staphylococcus aureus ATCC 25923 at 0.56 mM after 24 hrs by time kill assay in presence of 0.42 mM of quercetin; format: functional, organism-based
# Staphylococcus aureus [62] = test: Antibacterial activity against methicillin-resistant Staphylococcus aureus isolate 4 after 24 hrs by checkerboard assay; format: functional; conditions: isolate 4, 24 h
smiles,measurement,setting,value
O=C(O[C@@H]1Cc2c(O)cc(O)cc2O[C@@H]1c1cc(O)c(O)c(O)c1)c1cc(O)c(O)c(O)c1 [EPIGALOCATECHIN GALLATE],MIC,Staphylococcus aureus [1],280 µM
same,MIC,Staphylococcus aureus [2],70 µM
same,MIC,Staphylococcus aureus [3],140 µM
same,fractional inhibitory concentration index (FICI),Staphylococcus aureus [4],0.07
same,MIC,Staphylococcus aureus [5],280 µM
same,inhibition zone (IZ),Staphylococcus aureus [6],>=19 mm
same,MIC,Staphylococcus aureus [7],280 µM
same,Activity,Staphylococcus aureus [8],Active
same,Activity,Staphylococcus aureus [9],Active
same,Activity,Staphylococcus aureus [10],Active
same,inhibition zone (IZ),Staphylococcus aureus [11],>=19 mm
same,MIC,Staphylococcus aureus [12],70 µM
same,fractional inhibitory concentration index (FICI),Staphylococcus aureus [13],0.28
same,fractional inhibitory concentration index (FICI),Staphylococcus aureus [14],0.06
same,fractional inhibitory concentration index (FICI),Staphylococcus aureus [15],0.31
same,MIC,Staphylococcus aureus [16],280 µM
same,Activity,Staphylococcus aureus [17],Active
same,MIC,Staphylococcus aureus [18],280 µM
same,inhibition zone (IZ),Staphylococcus aureus [19],>=19 mm
same,Activity,Staphylococcus aureus [20],Active
same,MIC,Staphylococcus aureus [21],280 µM
same,MIC,Staphylococcus aureus [22],4 µM
same,MIC,Staphylococcus aureus [23],70 µM
same,fractional inhibitory concentration index (FICI),Staphylococcus aureus [24],0.31
same,fractional inhibitory concentration index (FICI),Staphylococcus aureus [25],0.09
same,MIC,Staphylococcus aureus [26],70 µM
same,inhibition zone (IZ),Staphylococcus aureus [27],>=19 mm
same,Activity,Staphylococcus aureus [28],Active
same,fractional inhibitory concentration index (FICI),Staphylococcus aureus [29],0.31
same,MIC,Staphylococcus aureus [30],20 µM
same,fractional inhibitory concentration index (FICI),Staphylococcus aureus [31],0.28
same,Activity,Staphylococcus aureus [32],Active
same,Activity,Staphylococcus aureus [33],Active
same,fractional inhibitory concentration index (FICI),Staphylococcus aureus [34],0.28
same,inhibition zone (IZ),Staphylococcus aureus [35],8 mm
same,inhibition zone (IZ),Staphylococcus aureus [36],>=19 mm
same,Activity,Staphylococcus aureus [37],Active
same,MIC,Staphylococcus aureus [38],70 µM
same,MIC,Staphylococcus aureus [39],70 µM
same,inhibition zone (IZ),Staphylococcus aureus [40],>=19 mm
same,MIC,Staphylococcus aureus [41],280 µM
same,Activity,Staphylococcus aureus [42],Active
same,inhibition zone (IZ),Staphylococcus aureus [43],>=19 mm
same,Activity,Staphylococcus aureus [44],Active
same,fractional inhibitory concentration index (FICI),Staphylococcus aureus [45],0.31
same,MIC,Staphylococcus aureus [46],560 µM
same,inhibition zone (IZ),Staphylococcus aureus [47],>=19 mm
same,fractional inhibitory concentration index (FICI),Staphylococcus aureus [48],0.31
same,MIC,Staphylococcus aureus [49],40 µM
same,MIC,Staphylococcus aureus [50],20 µM
same,Activity,Staphylococcus aureus [51],Active
same,Activity,Staphylococcus aureus [52],Active
same,MIC,Staphylococcus aureus [53],70 µM
same,Activity,Staphylococcus aureus [54],Active
same,MIC,Staphylococcus aureus [55],70 µM
same,Activity,Staphylococcus aureus [56],Active
same,fractional inhibitory concentration index (FICI),Staphylococcus aureus [57],0.2
same,MIC,Staphylococcus aureus [58],280 µM
same,MIC,Staphylococcus aureus [59],280 µM
same,Activity,Staphylococcus aureus [60],Active
same,Activity,Staphylococcus aureus [61],Active
same,MIC,Staphylococcus aureus [62],280 µM
